In paper PMC10742973 (International Journal of Molecular Sciences, 2023):

Biological target: T1, MtMetAP1c (Mycobacterium tuberculosis, UniProt P9WK19)
T1 construct: gene map
Assay: biochemical
Settings: read-out: IC50 (μM) / MtMetAP1c + 100 μM CoCl2

T1 sequence (P9WK19 whole entry): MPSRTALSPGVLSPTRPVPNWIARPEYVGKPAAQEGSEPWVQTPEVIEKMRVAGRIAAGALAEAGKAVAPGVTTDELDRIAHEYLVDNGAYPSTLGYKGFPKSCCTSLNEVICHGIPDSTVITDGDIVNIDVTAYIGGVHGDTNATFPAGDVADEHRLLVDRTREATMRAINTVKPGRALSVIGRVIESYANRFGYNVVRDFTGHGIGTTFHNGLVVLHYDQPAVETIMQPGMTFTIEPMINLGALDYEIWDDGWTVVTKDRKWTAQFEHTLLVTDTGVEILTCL

With Cc1nc(-c2ccccn2)nc(N(C)Cc2ccccc2)c1Cl [OJT008, N-benzyl-5-chloro-N,6-dimethyl-2-pyridin-2-ylpyrimidin-4-amine] the IC50 was 11.8 ± 1.3 µM.
